Reference: PubChem BioAssay AID1963449 (Molecular Pharmacology Branch, DTP, NCI, 2024)

Tested on: 596521-263-R-J1-PDC complex spheroid growth
Experiment: Anticancer human tumor 596521-263-R-J1-PDC patient-derived soft tissue sarcoma cell line growth inhibition [Asc]
Details: for IC50: curve of first compound; for viability, T/C: stronger effect = lower value
Method in brief: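 Spheroid model: tumor line + HUVEC + hMSC. Single agents and combinations; top conc. at/near clinical Cmax (10 microM if undetermined), half-log dilutions. DMSO stocks at 800-fold test concentration.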
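Note: spheroids exposed to compounds for 7 days.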

## COc1c(OCCCN2CCOCC2)ccc2c3n(c(=NC(=O)c4cnc(N)nc4)nc12)CCN3 + CCN1C(C(=O)NC23CCC(C(=O)O)(CC2)CC3)C(c2cccc(Cl)c2F)C2(C(=O)Nc3cc(Cl)ccc32)C12CCCCC2
Second compound 0.00949 µM
  IC50: 199 nM
Second compound 0.03 µM
  IC50: 182 nM
Second compound 0.0949 µM
  IC50: 159 nM
Second compound 0.3 µM
  IC50: 212 nM
Second compound 0.949 µM
  IC50: 105 nM
Second compound 3 µM
  IC50: 125 nM
Second compound 0.00949 µM, first compound 0.00316 µM
  viability, T/C: 93.1%
Second compound 0.00949 µM, first compound 0.01 µM
  viability, T/C: 90.5%
Second compound 0.00949 µM, first compound 0.0316 µM
  viability, T/C: 70.4%
Second compound 0.00949 µM, first compound 0.1 µM
  viability, T/C: 67.6%
Second compound 0.00949 µM, first compound 0.316 µM
  viability, T/C: 39.1%
Second compound 0.00949 µM, first compound 1 µM
  viability, T/C: 24%
Second compound 0.03 µM, first compound 0.00316 µM
  viability, T/C: 97.5%
Second compound 0.03 µM, first compound 0.01 µM
  viability, T/C: 96.7%
Second compound 0.03 µM, first compound 0.0316 µM
  viability, T/C: 80%
Second compound 0.03 µM, first compound 0.1 µM
  viability, T/C: 59.4%
Second compound 0.03 µM, first compound 0.316 µM
  viability, T/C: 42%
Second compound 0.03 µM, first compound 1 µM
  viability, T/C: 34.9%
Second compound 0.0949 µM, first compound 0.00316 µM
  viability, T/C: 87.7%
Second compound 0.0949 µM, first compound 0.01 µM
  viability, T/C: 96.3%
Second compound 0.0949 µM, first compound 0.0316 µM
  viability, T/C: 78.3%
Second compound 0.0949 µM, first compound 0.1 µM
  viability, T/C: 59.1%
Second compound 0.0949 µM, first compound 0.316 µM
  viability, T/C: 37.5%
Second compound 0.0949 µM, first compound 1 µM
  viability, T/C: 31.4%
Second compound 0.3 µM, first compound 0.00316 µM
  viability, T/C: 99.9%
Second compound 0.3 µM, first compound 0.01 µM
  viability, T/C: 83.8%
Second compound 0.3 µM, first compound 0.0316 µM
  viability, T/C: 79.9%
Second compound 0.3 µM, first compound 0.1 µM
  viability, T/C: 64.8%
Second compound 0.3 µM, first compound 0.316 µM
  viability, T/C: 39.9%
Second compound 0.3 µM, first compound 1 µM
  viability, T/C: 29.9%
Second compound 0.949 µM, first compound 0.00316 µM
  viability, T/C: 103%
Second compound 0.949 µM, first compound 0.01 µM
  viability, T/C: 97.3%
Second compound 0.949 µM, first compound 0.0316 µM
  viability, T/C: 75.3%
Second compound 0.949 µM, first compound 0.1 µM
  viability, T/C: 50.9%
Second compound 0.949 µM, first compound 0.316 µM
  viability, T/C: 36.1%
Second compound 0.949 µM, first compound 1 µM
  viability, T/C: 30.1%
Second compound 3 µM, first compound 0.00316 µM
  viability, T/C: 87.5%
Second compound 3 µM, first compound 0.01 µM
  viability, T/C: 85.4%
Second compound 3 µM, first compound 0.0316 µM
  viability, T/C: 78.2%
Second compound 3 µM, first compound 0.1 µM
  viability, T/C: 52.3%
Second compound 3 µM, first compound 0.316 µM
  viability, T/C: 40.1%
Second compound 3 µM, first compound 1 µM
  viability, T/C: 38.7%
